From ChEMBL document CHEMBL1201862, “PubChem BioAssay data set” (2004)
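Tested at 5 concentrations; 48 h exposure; 96-well plates; endpoints linearly interpolated, else capped at highest concentration. GI50: concentration for 50% inhibition of growth.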 Calls of active or inactive are those of the source. Cut-off read from the data, not from the text of the source: active = GI50 up to about 1.1 µM and inactive = higher.

Assays:
Test in all cases: growth of human tumour cells (NCI), 48 h
Hs-578T = system: Hs-578T
IGROV-1 = system: IGROV-1
SNB-75 = system: SNB-75
KM12 = system: KM12
OVCAR-8 = system: OVCAR-8
BT-549 = system: BT-549
OVCAR-4 = system: OVCAR-4
LOX IMVI = system: LOX IMVI
NCI-H23 = system: NCI-H23
SF-268 = system: SF-268
UACC-257 = system: UACC-257
SW-620 = system: SW-620
MDA-MB-435 = system: MDA-MB-435
RPMI-8226 = system: RPMI-8226
EKVX = system: EKVX
786-0 = system: 786-0
MDA-MB-231 = system: MDA-MB-231
T47D = system: T47D
HOP-62 = system: HOP-62
HCC 2998 = system: HCC 2998

Row | Structure (SMILES) | GI50 (Hs-578T) | GI50 (IGROV-1) | GI50 (SNB-75) | GI50 (KM12) | GI50 (OVCAR-8) | GI50 (BT-549) | GI50 (OVCAR-4) | GI50 (LOX IMVI) | GI50 (NCI-H23) | GI50 (SF-268) | GI50 (UACC-257) | GI50 (SW-620) | GI50 (MDA-MB-435) | GI50 (RPMI-8226) | GI50 (EKVX) | GI50 (786-0) | GI50 (MDA-MB-231) | GI50 (T47D) | GI50 (HOP-62) | GI50 (HCC 2998)
1 | CC(C)(C)c1ccc2c(c1)C(=O)c1ccccc1C2=O | 90.2 µM (inactive) | 33 µM (inactive) | 16.2 µM (inactive) | 36 µM (inactive) | 44.5 µM (inactive) | 24.8 µM (inactive) | 33.6 µM (inactive) | 41.4 µM (inactive) | 61.9 µM (inactive) | 39.4 µM (inactive) | 40.2 µM (inactive) | > 100 µM (inactive) | 35.9 µM (inactive) | 31.3 µM (inactive) | 19 µM (inactive) | > 100 µM (inactive) | > 100 µM (inactive) | > 100 µM (inactive) | > 100 µM (inactive) | 
2 | Nc1nc(SCC(=O)c2ccc(Br)cc2)c2nc[nH]c2n1 | 21.6 µM (inactive) | 13.6 µM (inactive) | 28 µM (inactive) | 44.8 µM (inactive) | 28.8 µM (inactive) | 27 µM (inactive) | 53.3 µM (inactive) | 31.4 µM (inactive) | 45.2 µM (inactive) | 23 µM (inactive) | 30.5 µM (inactive) | 46.6 µM (inactive) | 35.2 µM (inactive) | 17.1 µM (inactive) | 38.5 µM (inactive) | 42.2 µM (inactive) | 52.1 µM (inactive) | 25.8 µM (inactive) | 44.9 µM (inactive) | 
3 | O=S(=O)(O)C(c1ccccc1)C(O)c1ccccc1 (centres undefined) | > 100 µM (inactive) | > 100 µM (inactive) | > 100 µM (inactive) | > 100 µM (inactive) | > 100 µM (inactive) | > 100 µM (inactive) | > 100 µM (inactive) | > 100 µM (inactive) | > 100 µM (inactive) | > 100 µM (inactive) | 46.5 µM (inactive) | > 100 µM (inactive) | > 100 µM (inactive) | > 100 µM (inactive) | > 100 µM (inactive) | > 100 µM (inactive) | > 100 µM (inactive) | > 100 µM (inactive) | > 100 µM (inactive) | 
4 | C=CC(C)(C)c1cc([C@@H]2COc3cc(O)ccc3C2=O)c(O)c(OC)c1OC | 16.4 µM (inactive) |  | 4.63 µM (inactive) | 13.2 µM (inactive) | 17.3 µM (inactive) | 10.2 µM (inactive) | 3.94 µM (inactive) | 16.6 µM (inactive) | 10.4 µM (inactive) | 12.6 µM (inactive) | 13 µM (inactive) | 31.6 µM (inactive) | 6.44 µM (inactive) |  | 12.1 µM (inactive) | 16 µM (inactive) | 13.5 µM (inactive) | 3.24 µM (inactive) |  | 17.1 µM (inactive)
5 | COc1ccc2c(c1C)C(=O)C(O)(CC=C(C)C)O2 (centres undefined) | > 100 µM (inactive) | > 100 µM (inactive) | > 100 µM (inactive) | > 100 µM (inactive) | > 100 µM (inactive) | > 100 µM (inactive) |  | > 100 µM (inactive) | > 100 µM (inactive) | > 100 µM (inactive) | > 100 µM (inactive) | > 100 µM (inactive) | > 100 µM (inactive) | > 100 µM (inactive) | > 100 µM (inactive) | > 100 µM (inactive) | > 100 µM (inactive) | > 100 µM (inactive) | > 100 µM (inactive) | > 100 µM (inactive)
6 | O=C(O)c1ccccc1/C=C1/Cc2ccc3c(c2C1=O)CCC3 | 32.2 µM (inactive) | 43.6 µM (inactive) | 39.4 µM (inactive) | 37.8 µM (inactive) | 48.1 µM (inactive) | 22.9 µM (inactive) | 29.8 µM (inactive) | 19.1 µM (inactive) | 35.6 µM (inactive) | 36.1 µM (inactive) | 41.8 µM (inactive) | 58.9 µM (inactive) | 26.3 µM (inactive) | 22.4 µM (inactive) | 48.1 µM (inactive) | 49 µM (inactive) |  | 89.3 µM (inactive) | 68.9 µM (inactive) | 30.5 µM (inactive)
7 | O=C(NCCCCCCO)c1cccc2cc3ccccc3nc12 | 25.8 µM (inactive) | 17.7 µM (inactive) | 21.9 µM (inactive) | 18.7 µM (inactive) | 32.3 µM (inactive) | 16.2 µM (inactive) | 18.9 µM (inactive) | 16.6 µM (inactive) |  |  | 17.6 µM (inactive) | 29.9 µM (inactive) | 21.7 µM (inactive) | 16.7 µM (inactive) | 16.7 µM (inactive) | 13.8 µM (inactive) | 21 µM (inactive) | 10.8 µM (inactive) | 17.9 µM (inactive) | 
8 | Cc1c(F)c(NC(=O)CN(C)C)c2c(=O)cc(-c3ccc(NC(=O)CN(C)C)c(F)c3)oc2c1F | 26.9 µM (inactive) | 15.7 µM (inactive) |  | 13.4 µM (inactive) | 17.8 µM (inactive) | 17.9 µM (inactive) | 18.9 µM (inactive) | 14.9 µM (inactive) | 17.3 µM (inactive) | 16.6 µM (inactive) | 21.9 µM (inactive) | 16.2 µM (inactive) | 12.6 µM (inactive) | 16.8 µM (inactive) |  | 15.9 µM (inactive) | 13.6 µM (inactive) | 24.2 µM (inactive) | 16.6 µM (inactive) | 0.678 µM (active)
9 | C=CCN1C(=O)/C(=C\c2cc(C(C)(C)C)c(O)c(C(C)(C)C)c2)NC1=S | 48.2 µM (inactive) | 36.6 µM (inactive) |  | 19.4 µM (inactive) | 33.9 µM (inactive) | 33.9 µM (inactive) | 19.3 µM (inactive) | 16.4 µM (inactive) | 21.2 µM (inactive) | 36.1 µM (inactive) | 15.6 µM (inactive) | 20.6 µM (inactive) | 24 µM (inactive) | 7.87 µM (inactive) | 19.9 µM (inactive) | 20.8 µM (inactive) | 15.9 µM (inactive) |  | 20.9 µM (inactive) | 
10 | CC1=NN(c2nc(N)nc(-c3sccc3N)n2)C(C)(C)C1 | 89.3 µM (inactive) | > 100 µM (inactive) | 36.3 µM (inactive) | 46.1 µM (inactive) | 62.5 µM (inactive) | 56.1 µM (inactive) | 21.7 µM (inactive) | 90.4 µM (inactive) | 64.9 µM (inactive) | > 100 µM (inactive) | > 100 µM (inactive) | > 100 µM (inactive) | 45 µM (inactive) | 31.8 µM (inactive) | 82.6 µM (inactive) | > 100 µM (inactive) | 73.1 µM (inactive) |  | > 100 µM (inactive) | > 100 µM (inactive)
11 | CCOC1=C(c2ccccc2)N2CCCCC2O1 (centres undefined) | 6.12 µM (inactive) | 5.78 µM (inactive) | 2.83 µM (inactive) | 3.27 µM (inactive) | 3.89 µM (inactive) | 5.33 µM (inactive) |  | 3.77 µM (inactive) | 3.29 µM (inactive) | 4.34 µM (inactive) | 3.46 µM (inactive) | 4.21 µM (inactive) | 3.25 µM (inactive) | 1.5 µM (inactive) | 5.19 µM (inactive) | 4.55 µM (inactive) | 3.61 µM (inactive) | 2.04 µM (inactive) | 4.6 µM (inactive) | 3.12 µM (inactive)
12 | COc1cc(Nc2nnc3n2S(=O)(=O)c2cc(C)c(Cl)cc2S3)cc(OC)c1 | 14.2 µM (inactive) | 1.87 µM (inactive) |  | 23.4 µM (inactive) | 17.5 µM (inactive) | 5.77 µM (inactive) | 4.3 µM (inactive) |  | 6.25 µM (inactive) | 11.5 µM (inactive) | 16.6 µM (inactive) |  | 4.28 µM (inactive) | 2.87 µM (inactive) | 15.4 µM (inactive) | 4.22 µM (inactive) | 19.9 µM (inactive) | 8.22 µM (inactive) | 11.9 µM (inactive) | 6.18 µM (inactive)
13 | N#CC1=C(N)Nc2nc3ccccc3n2C1c1ccccc1 (centres undefined) | 24.7 µM (inactive) | 51.5 µM (inactive) |  | 53.7 µM (inactive) | 55.1 µM (inactive) | 23.8 µM (inactive) |  | 62.7 µM (inactive) | > 100 µM (inactive) | 46.7 µM (inactive) | > 100 µM (inactive) | 55.6 µM (inactive) | 45.6 µM (inactive) | 6.41 µM (inactive) | 9.2 µM (inactive) | 34 µM (inactive) | 45.9 µM (inactive) | 20.2 µM (inactive) | 88.1 µM (inactive) | 
14 | COCCOC(C)C(=O)C(O)S(=O)(=O)O (centres undefined) | > 100 µM (inactive) | > 100 µM (inactive) | > 100 µM (inactive) | > 100 µM (inactive) | > 100 µM (inactive) | > 100 µM (inactive) | > 100 µM (inactive) |  | > 100 µM (inactive) | > 100 µM (inactive) | > 100 µM (inactive) | > 100 µM (inactive) | > 100 µM (inactive) | > 100 µM (inactive) | > 100 µM (inactive) | > 100 µM (inactive) | > 100 µM (inactive) | > 100 µM (inactive) | > 100 µM (inactive) | > 100 µM (inactive)
15 | COc1cc(O)c2c(c1)C(=O)c1cc3c(c(O)c1C2=O)C(OC1OC(C)C(OC)C(O)C1OC)C(OC)C(C)(O)C3=O (centres undefined) | 8.47 µM (inactive) | 2.12 µM (inactive) | 4.15 µM (inactive) | 3.7 µM (inactive) | 2.36 µM (inactive) | 14.5 µM (inactive) | 4.03 µM (inactive) | 2.7 µM (inactive) | 5.86 µM (inactive) | 5.55 µM (inactive) | 4.28 µM (inactive) | 3.6 µM (inactive) | 3.8 µM (inactive) | 1.29 µM (inactive) | 3.37 µM (inactive) | 5.28 µM (inactive) | 4.44 µM (inactive) |  | 5.46 µM (inactive) | 5.02 µM (inactive)
